Where only a bound is given, the exact number is not on record here.

The term melting point denotes the temperature of the solid-liquid transition. Compound `Cc1ccccc1-n1c(=O)c(N2CCNCC2)nc2ccccc21` yielded a melting point of 151 to 153 °C. With `COCc1c(-c2ccncc2)[nH]c(-c2ccncc2)c1C(C)=O` the figure was 154 to 156 °C; with `O=[N+]([O-])c1oc2c(ccc3ccccc32)c1-c1ccc(Br)cc1`, 230 to 233 °C; with `O=C(O)c1cn(-c2ccncc2F)c2nc(Cl)c(F)cc2c1=O`, 228 to 230 °C. Turning to `CSc1nc(Cl)c(-c2c(F)cc(F)cc2F)c(N2CCCC(C)O2)n1` (stereo unspecified), the melting point lay within 110 to 111 °C. In turn, `Cc1cccc(NC(=O)N2CCN(CC(=O)N3CC=C(c4cccc(C(F)(F)F)c4)n4ncc(C#N)c43)CC2)c1` had a melting point of 138 to 140 °C. Under `CCn1c(=O)n(OCc2ccccc2)c(=O)c2cc(F)c(N3CCN(C)CC3)cc21` stands 134 to 136 °C; under `COc1cccc2c(=O)n(C(C)(C)C(=O)OCC(=O)c3ccccc3)c(=O)[nH]c12`, 132 to 133 °C.

`COC(=O)C1=C(C)OC(OC)(OC)CC1NC(C)=O` (stereo unspecified) gave a melting point of 160 to 162 °C. `O=C(Oc1cc([N+](=O)[O-])ccc1[N+](=O)[O-])c1cc2ccccc2oc1=O` yielded a melting point of 223 to 225 °C. On to `COCC(=O)Nc1cccc2c1C1(COc3cc4c(cc31)OCCO4)C(=O)N2C` (stereo unspecified), for which the melting point lay in the range of 237 to 239 °C. For the compound `O=C(c1cc(N2CCC(F)(F)CC2)ccn1)N(O)Cc1ccccc1`, the melting point lay in the range of 90 to 95 °C. In turn, `O=C(Nc1ccc(C(=O)N2Cc3ccccc3Sc3ccccc32)cc1)c1ccc(Cl)cc1Cl` displayed a melting point of 112 to 115 °C.

`Nc1nc(Nc2ccc3nc[nH]c3c2)sc1C(=O)c1cc(Cl)sc1Cl` displayed a melting point of over 300 °C. In the case of `O=c1cc(-c2ccncc2)oc2ccccc12`, the melting point fell in the range of 144 to 145 °C. Under `Cc1ccc(NCCC(N)=S)c(C)c1` stands 104 to 105 °C; under `CC1(C)CCC(C)(C)c2cc(C#Cc3ccc(/C=C/C(=O)O)cc3)ccc21`, 256 to 258 °C.

`Cc1ccc(-c2c(Cl)nc3ncnn3c2NC2CCCC2)cc1` registered a melting point of 158 °C. Under `C=CCc1cc2c(c(CC=C)c1O)NC(=O)CC2` stands 86 to 88 °C. The compound `CON=C(c1cc(C)no1)c1ccccc1COc1ncc(C(F)(F)F)cc1Cl` came in with a melting point of 77 to 79 °C. With `CC(CSCCSCCSCC(C)C(=O)Nc1ccc(Nc2ccccc2)cc1)C(=O)Nc1ccc(Nc2ccccc2)cc1` (stereo unspecified) the figure was 131 to 134 °C. With `C=CCc1c(OC(C)=O)c(C)cc2ccc(=O)oc12` the figure was 110 to 111 °C; with `COc1cc(OC)c([N+](=O)[O-])cc1C(=O)CCCCCl`, 93 to 95 °C.

`CC(=O)c1c(-c2ccncc2)[nH]c(-c2ccncc2)c1C`: the melting point lay in the range of 237 to 240 °C. With `O=C(Oc1ccccc1C(=O)Nc1cc(Cl)c(OC(=O)c2ccccc2)c(Cl)c1)c1ccccc1` the figure was 157 to 160 °C; with `Cc1cccc2c1nc(-c1cccnc1)n2Cc1c(F)cccc1F`, 186 to 188 °C; with `COC(=O)C(C)NC(=O)NCCCCC1CCSS1` (stereo unspecified), 72 to 82 °C. With `COc1ccc(-c2nc3cc(F)ccc3s2)cc1OC(=O)c1cccc([N+](=O)[O-])c1` the figure was 212 °C; with `CS(=O)(=O)N1CC(=O)NC(=O)N1Cc1ccc(Cl)cc1`, 145 °C. With `O=C(O)COC1(Cl)CC(c2ccccc2)=Nc2ccccc21` (stereo unspecified) the figure was 230 °C; with `CC(C)c1ccc(-c2ccc(F)cc2)n1C(C)CC1CC(O)CC(=O)O1` (stereo unspecified), 167 to 169 °C; with `C#C[C@]1(C)CCc2c(C)c(O)c(C)c(C)c2O1`, 81 to 83 °C. Regarding `CNC(Cc1ccc(C(F)(F)F)cc1N)c1sccc1C` (stereo unspecified), the melting point was 52 to 54 °C. As for `Cc1c2ccccc2cc2[nH]c(S)nc12`, the melting point was over 300 °C. With `O=C(O)[C@H]1C=C[C@H](c2ccccc2)n2c(=O)n(CCS)c(=O)n21` (relative stereo) the figure was 153 to 154 °C. Under `COC(=O)c1ccc(/C=C/c2nc(-c3ccc4ccccc4c3)oc2C)cc1` stands 216 to 217 °C; under `COc1ccc(Cn2c(=O)cc(C)c3cnc(N4CCC[C@H]4CO)nc32)cc1Cl`, 150 to 153 °C; under `O=C1c2cccc(NC(=S)Nc3cc[nH]n3)c2C2CCCCN12` (stereo unspecified), 208 °C. With `CC1CCCN1CCCOc1ccc(-c2ccc(S(=O)Cc3ccccc3)nn2)cc1` (stereo unspecified) the figure was 145 °C; with `S=C=Nc1cccc2ccoc12`, 45 to 46 °C.

`COCCOC(=O)Nc1cc(N2CC=CCC2)nc(N)n1`: the melting point came out at 136 °C.

For `CC(C)(C)N1CC(=O)Nc2ccc(Cl)cc2C1=O`, the melting point lay within 177 to 178 °C. In turn, `C/C(=C\c1ccc(NC(=O)c2cc([Si](C)(C)C)cc([Si](C)(C)C)c2)cc1F)C(=O)O` yielded a melting point of 213 to 215 °C. Compound `CC1COc2cccc3[nH]c(=O)n1c23` (stereo unspecified) registered a melting point of 137 °C. With `CC(C)NCC(O)c1cc(F)cc(C#N)c1` (stereo unspecified) the figure was 85.5 to 86.5 °C; with `Cc1cc(NC(=O)c2cnccn2)nc(C)c1[N+](=O)[O-]`, 158 °C; with `Cc1cc2c(cc1C)OCCC(C(=O)O)=C2`, 266 to 267 °C. Under `Cn1ncc2[nH]c3ccc(Cc4ccccc4)cc3c(=O)c21` stands 282 °C; under `COc1ccc2c(c1)NC(=O)N(c1ccc(Cl)cc1)S2(=O)=O`, 229 to 230 °C; under `O=C(O)c1sccc1C(F)F`, 119 to 120 °C. Under `C#Cc1cnc2ccc(OC(SC)C(=O)NC(C)(C#N)CO)cc2c1` (stereo unspecified) stands 78 to 80 °C; under `O=C(O)c1ccc(SCC(=O)C23CC4CC(CC(C4)C2)C3)nc1`, 174 to 176 °C; under `COC(=O)C1=CC=C(CC2=CCc3ccc(NC(=O)C(F)(F)F)cc32)C(OC)(OC)C1`, 198 to 200 °C. `C=CCNC(=S)C(OC)c1ccccn1` (stereo unspecified) had a melting point of 59.5 to 60 °C. With `On1c(C(F)(F)F)nc2ncc(Cl)cc21` the figure was 264 to 266 °C; with `O=C1NN=C(c2ccc3c(c2)C2(CCCS2)C(=O)N3)CS1` (stereo unspecified), 284 °C; with `O=C1Nc2c(ccc3c2CCNC3)C1=O`, 270 °C. Under `COc1cn(-c2ccc(C3=CCOCC3)cc2F)nc(-c2ccnn2-c2ccccc2)c1=O` stands 229 to 231 °C. With `O=C1NCC=Cc2c1[nH]c(Br)c2Br` the figure was 170 to 175 °C. For the compound `CCN(CC)CC1CCCCN1CC(=O)N1c2ccccc2NC(=O)c2cscc21` (stereo unspecified), the melting point was 163 to 164 °C. Compound `COCCn1cc(-c2ccccc2)[nH]c1=O` came in with a melting point of 152 to 153 °C.

In the case of `CC1(C)C(=O)Nc2ccc(-c3ccc(C#N)[nH]3)cc21`, the melting point was in the range of 256 to 258 °C.

`O=C(Nc1ccccc1-n1cccn1)c1cccc2c1C(=O)c1ccccc1-2` yielded a melting point of 164 to 166 °C. `CC(C)(C(O)c1ccc2c(c1)OCO2)[N+](=O)[O-]` (stereo unspecified) yielded a melting point of 88 to 91 °C. With `Cc1ccc(-n2c(-c3cc(-c4ccc(Cl)cc4)c(N4CCOCC4)s3)nc3ccccc3c2=O)cc1` the figure was 224 to 226 °C; with `COc1ccc(C(=O)Oc2cccc3cc4cccc(OC(=O)c5ccc(OC)cc5)c4c(OC(=O)c4ccc(OC)cc4)c23)cc1`, 260 °C; with `Cc1cc(OCc2c(-c3c(Cl)cccc3Cl)noc2C(C)C)cnc1NC(=O)c1ccc(C(=O)O)cc1`, 218 °C. With `CCOC(=O)C(O)=Cc1ccc(Oc2ccccc2)nn1` the figure was 127 to 128 °C; with `COc1ccc2c(c1)c1c3c(c(-c4ccccc4Cl)cc1n2CCC(=O)NS(=O)(=O)CCN(C)C)C(=O)NC3=O`, 208 to 213 °C. `CC(C)C(=O)c1cccn1N1C(=O)c2ccccc2C1=O` displayed a melting point of 147 to 149 °C. In turn, `O=C(O)c1cc2ccsc2nc1C(=O)O` came in with a melting point of 272 to 275 °C.

`COc1nc(C)nc(C(F)(F)F)c1I` had a melting point of 44 to 45 °C.

Regarding `O=c1cncc2ccccc2n1`, the melting point was found to be 213 °C.

Turning to `COc1cc2c(cc1O)[nH]c1cc(-c3ccccc3Cl)c3c(c12)C(=O)NC3=O`, the melting point lay in the range of 194 to 196 °C. With `Oc1ccccc1-c1cccnc1` the figure was 185 °C; with `O=C1CCCN1C(=O)NCCCN1CC=C(c2ccc(Cl)c(Cl)c2)CC1`, 136 °C. `c1cc2c3c(c1)nc(N1CCOCC1)n3CCC2`: the melting point lay within 93 to 94 °C.

Turning to `CCCCCCCCCC1SC(c2cccnc2)NC1=O` (stereo unspecified), the melting point is 90 to 95 °C. Regarding `CC(C)N(C[C@H](O)CO)S(C)(=O)=O`, the melting point lay in the range of 67 to 70 °C.

Consider `Cc1c(C(C)O)cc(C(C)C)c(-c2ccc(O)cc2)c1Cl` (stereo unspecified), for which the melting point is 220 to 222 °C. Regarding `CN1CCCCc2[nH]c3ccccc3c2CC1`, the melting point was 128 to 131 °C. `COc1c(Nc2ncc(Cl)c(Nc3ccccc3S(=O)(=O)N3CCC(O)C3)n2)ccc2c1CCCC(NCCO)C2` (stereo unspecified) returned a melting point of 90 to 92 °C. As to `COc1cc(C(=O)CCCN2CCC(OC(=O)c3cc(Cl)c(N)c4c3OC(C)(C)C4)CC2)cc(OC)c1OC`, the melting point stood at 154 °C.

In turn, `CCOC(=O)c1ccc2c(CC[N+](=O)[O-])c[nH]c2c1` had a melting point of 124 to 127 °C. Under `Cc1ncn(Nc2cccc(Cl)c2)c1C` stands 146 °C.

In turn, `O=CNCC=C(c1ccc(-c2ccccc2)cc1)c1ccc(-c2ccccc2)cc1` registered a melting point of 171 to 173 °C.

`CCOC(=O)Cc1c(-c2ccc(Cl)cc2)nn2cc(Cl)cnc12`: the melting point was 139 to 140 °C. For the compound `CCOC(=O)Cc1ccc(Oc2ccc([N+](=O)[O-])cc2)cc1`, the melting point fell in the range of 70.5 to 73 °C.

`CC(Cl)(Cl)C(NC(=O)c1ccc(Cl)cc1)NC(=NC#N)Nc1cccnc1` (stereo unspecified) came in with a melting point of 185 to 187 °C. With `Cn1c(=O)c2c(N)nccc2n(C)c1=O` the figure was 229 to 230 °C.

Consider `COc1ccc(-n2nc(Cl)cc2-c2ccc(S(C)(=O)=O)cc2)cc1C#N`, for which the melting point was 191 to 194 °C.
